Patent US10183938B2, “Geminal substituted quinuclidine amide compounds as agonists of α-7 nicotonic acetylcholine receptors” (AXOVANT SCIENCES GMBH, priority 2014, dated 2019)
Counter-ions that a name gives are not always drawn.

biological target: human α7 nAChRs transiently expressed in Xenopus laevis oocytes (Homo sapiens (Human), UniProt P36544); test: Oocyte electrophysiology screen (TEVC); format: cell-based; settings: 0.01 mM test compound, peak current relative to 0.2 mM ACh
Outline: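 Peak inward current from 0.01 mM compound, applied 30 s, is expressed relative to a 5 s 0.2 mM ACh reference response, in triplicate. Recordings used two-electrode voltage clamp at −80 mV in Xenopus oocytes with 90 s OR2 washes.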

human α7 nAChRs transiently expressed in Xenopus laevis oocytes, sequence (P36544 23-502 limits assumed): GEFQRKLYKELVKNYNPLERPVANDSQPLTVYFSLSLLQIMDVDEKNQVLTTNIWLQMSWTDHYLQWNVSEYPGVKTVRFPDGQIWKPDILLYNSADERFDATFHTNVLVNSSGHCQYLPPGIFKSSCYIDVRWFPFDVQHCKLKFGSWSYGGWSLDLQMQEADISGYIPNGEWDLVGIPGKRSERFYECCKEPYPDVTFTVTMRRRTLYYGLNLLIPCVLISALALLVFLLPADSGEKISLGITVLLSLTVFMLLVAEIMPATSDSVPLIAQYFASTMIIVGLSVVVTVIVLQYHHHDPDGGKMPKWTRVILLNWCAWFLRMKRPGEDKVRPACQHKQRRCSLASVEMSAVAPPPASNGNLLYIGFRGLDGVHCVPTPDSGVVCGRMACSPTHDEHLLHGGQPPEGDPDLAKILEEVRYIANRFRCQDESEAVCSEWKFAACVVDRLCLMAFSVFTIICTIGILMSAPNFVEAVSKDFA

Compared with `O=C(N[C@@H]1C2CCN(CC2)C12CC2)c1ccc2occc2n1` [(R)-90, (R)—N-(1′-azaspiro[cyclopropane-1,2′-bicyclo[2.2.2]octan]-3′-yl)furo[3,2-b]pyridine-5-carboxamide hydrochloride], `O=C(N[C@H]1C2CCN(CC2)C12CC2)c1cc2ccoc2cn1` [(S)-75, (S)—N-(1′-azaspiro[cyclopropane-1,2′-bicyclo[2.2.2]octan]-3′-yl)furo[2,3-c]pyridine-5-carboxamide hydrochloride] is higher in “% ACh @ 10 μM Oocyte” value: 3 % ACh for the first, 14 % ACh for the second.

Going from `CC1(C)[C@H](NC(=O)c2cc3ccc(N4CCOCC4)cc3s2)C2CCN1CC2` [(R)-44, (R)—N-(2,2-dimethylquinuclidin-3-yl)-6-morpholinobenzo[b]thiophene-2-carboxamide hydrochloride] to `CC1(C)[C@H](NC(=O)c2cc3ccc(C4CCOCC4)cc3s2)C2CCN1CC2` [(R)-50, (R)—N-(2,2-dimethylquinuclidin-3-yl)-6-(tetrahydro-2H-pyran-4-yl)benzo[b]thiophene-2-carboxamide hydrochloride], the “% ACh @ 10 μM Oocyte” value falls from 1 % ACh to 0 % ACh.

Going from `CC1(C)[C@@H](NC(=O)c2cc3cccc(Cl)c3s2)C2CCN1CC2` [(S)-3, (S)-7-chloro-N-(2,2-dimethylquinuclidin-3-yl)benzo[b]thiophene-2-carboxamide hydrochloride] to `COc1ccc2cc(C(=O)N[C@@H]3C4CCN(CC4)C3(C)C)sc2c1Cl` [(R)-112, (R)-7-chloro-N-(2,2-dimethylquinuclidin-3-yl)-6-methoxybenzo[b]thiophene-2-carboxamide hydrochloride], the “% ACh @ 10 μM Oocyte” value rises from 22 % ACh to 234 % ACh.

Compared with `O=C(N[C@@H]1C2CCN(CC2)C12CC2)c1cc2ccc(-n3ccnn3)cc2s1` [(R)-98, (R)—N-(1′-azaspiro[cyclopropane-1,2′-bicyclo[2.2.2]octan]-3′-yl)-6-(1H-1,2,3-triazol-1-yl)benzo[b]thiophene-2-carboxamide hydrochloride], `N#Cc1ccc2cc(C(=O)N[C@@H]3C4CCN(CC4)C34CC4)sc2c1` [(R)-104, (R)-6-cyano-N-(1′-azaspiro[cyclopropane-1,2′-bicyclo[2.2.2]octan]-3′-yl)benzo[b]thiophene-2-carboxamide hydrochloride] is higher in “% ACh @ 10 μM Oocyte” value: 3 % ACh for the first, 20 % ACh for the second.

First: CC1(C)[C@H](NC(=O)c2cc3ccc(F)c(C(F)(F)F)c3s2)C2CCN1CC2.Cl [(R)-211, (R)-N-(2,2-dimethylquinuclidin-3-yl)-6-fluoro-7-(trifluoromethyl)benzo[b]thiophene-2-carboxamide hydrochloride]
Second: CC1(C)[C@H](NC(=O)c2cc3ccc(C4CC4)c(F)c3s2)C2CCN1CC2.Cl [(R)-213, (R)-6-cyclopropyl-N-(2,2-dimethylquinuclidin-3-yl)-7-fluorobenzo[b]thiophene-2-carboxamide hydrochloride]
The “% ACh @ 10 μM Oocyte” value of the first is higher: 100 % ACh for the first, 60 % ACh for the second.

Going from `COc1ccc2sc(C(=O)N[C@@H]3C4CCN(CC4)C3(C)C)cc2c1` [(R)-21, (R)—N-(2,2-dimethylquinuclidin-3-yl)-5-methoxybenzo[b]thiophene-2-carboxamide hydrochloride] to `CC1(C)[C@H](NC(=O)c2cc3ccc(N)cc3s2)C2CCN1CC2` [(R)-49, (R)-6-amino-N-(2,2-dimethylquinuclidin-3-yl)benzo[b]thiophene-2-carboxamide hydrochloride], the “% ACh @ 10 μM Oocyte” value rises from 73 % ACh to 576 % ACh.

Going from `O=C(NC1C2CCN(CC2)C12CC2)c1cc2cc(F)ccc2s1` (single isomer, unassigned; enantiomer2) [64b, 5-fluoro-N-(1′-azaspiro[cyclopropane-1,2′-bicyclo[2.2.2]octan]-3′-yl)benzo[b]thiophene-2-carboxamide-enantiomer2] to `O=C(NC1C2CCN(CC2)C12CC2)c1cc2ccc(C(F)(F)F)cc2s1` (single isomer, unassigned; enantiomer1) [63a, N-(1′-azaspiro[cyclopropane-1,2′-bicyclo[2.2.2]octan]-3′-yl)-6-(trifluoromethyl)benzo[b]thiophene-2-carboxamide-enantiomer1], the “% ACh @ 10 μM Oocyte” value rises from 1 % ACh to 3 % ACh.

First: O=C(N[C@@H]1C2CCN(CC2)C12CC2)c1cnc2occc2c1 [(R)-89, (R)—N-(1′-azaspiro[cyclopropane-1,2′-bicyclo[2.2.2]octan]-3′-yl)furo[2,3-b]pyridine-5-carboxamide hydrochloride]
Second: O=C(N[C@H]1C2CCN(CC2)C12CC2)c1cc2cccnc2s1 [(S)-81, (S)—N-(1′-azaspiro[cyclopropane-1,2′-bicyclo[2.2.2]octan]-3′-yl)thieno[2,3-b]pyridine-2-carboxamide hydrochloride]
The “% ACh @ 10 μM Oocyte” value of the first is lower: 0 % ACh for the first, 1 % ACh for the second.

First: CS(=O)(=O)c1ccc2cc(C(=O)N[C@@H]3C4CCN(CC4)C34CC4)sc2c1 [(R)-103, (R)-6-(methylsulfonyl)-N-(1′-azaspiro[cyclopropane-1,2′-bicyclo[2.2.2]octan]-3′-yl)benzo[b]thiophene-2-carboxamide hydrochloride]
Second: CC1(C)[C@H](NC(=O)c2nc3ccccc3s2)C2CCN1CC2 [(R)-29, (R)—N-(2,2-dimethylquinuclidin-3-yl)benzo[d]thiazole-2-carboxamide hydrochloride]
The “% ACh @ 10 μM Oocyte” value of the first is lower: 2 % ACh for the first, 448 % ACh for the second.

First: CC1(C)[C@H](NC(=O)c2ccc3cc[nH]c3c2)C2CCN1CC2 [(R)-26, (R)—N-(2,2-dimethylquinuclidin-3-yl)-1H-indole-6-carboxamide hydrochloride]
Second: CC1(C)[C@@H](NC(=O)c2ccc3occc3c2)C2CCN1CC2 [(S)-6, (S)—N-(2,2-dimethylquinuclidin-3-yl)benzofuran-5-carboxamide hydrochloride]
The “% ACh @ 10 μM Oocyte” value of the first is higher: 687 % ACh for the first, 2 % ACh for the second.

Compared with `Cc1nc2ccc(C(=O)N[C@@H]3C4CCN(CC4)C3(C)C)cc2o1` [(R)-33, (R)—N-(2,2-dimethylquinuclidin-3-yl)-2-methylbenzo[d]oxazole-6-carboxamide], `CC1(C)[C@H](NC(=O)c2ccc3occ(Cl)c3c2)C2CCN1CC2` [(R)-41, (R)-3-chloro-N-(2,2-dimethylquinuclidin-3-yl)benzofuran-5-carboxamide hydrochloride] is higher in “% ACh @ 10 μM Oocyte” value: 6 % ACh for the first, 384 % ACh for the second.

same assay, conditions: 0.01 mM test compound, peak current relative to 0.2 mM ACh; hydrochloride

Compared with `O=C(NC1C2CCN(CC2)C12CC2)c1cc2cccc(F)c2s1` (single isomer, unassigned; enantiomer2) [57b, 7-fluoro-N-(1′-azaspiro[cyclopropane-1,2′-bicyclo[2.2.2]octan]-3′-yl)benzo[b]thiophene-2-carboxamide-enantiomer2 hydrochloride], `O=C(NC1C2CCN(CC2)C12CC2)c1cc2cc(C3CC3)ccc2s1` (single isomer, unassigned; enantiomer1) [72a, 5-cyclopropyl-N-(1′-azaspiro[cyclopropane-1,2′-bicyclo[2.2.2]octan]-3′-yl)benzo[b]thiophene-2-carboxamide-enantiomer1 hydrochloride] is higher in “% ACh @ 10 μM Oocyte” value: 4 % ACh for the first, 188 % ACh for the second.

For `O=C(NC1C2CCN(CC2)C12CC2)c1cc2ccc(C3CC3)cc2s1` (single isomer, unassigned; enantiomer1) [71a, 6-cyclopropyl-N-(1′-azaspiro[cyclopropane-1,2′-bicyclo[2.2.2]octan]-3′-yl)benzo[b]thiophene-2-carboxamide-enantiomer1 hydrochloride], the “% ACh @ 10 μM Oocyte” value was 739 % ACh.
